Test [1] addresses human GLP-1 receptor (hGLP-1R) (Homo sapiens, UniProt P43220). Briefly: cAMP production (HTRF) in CHO cells expressing hGLP-1R. The note with it: for EC50: cAMP in CHO hGLP-1R cells, geometric mean, read-out: hGLP-1R EC50; for % Relative Potency Ratio: % GLP-1R activity relative to GLP-1 / % GlucR activity relative to glucagon. The format is cell-based. Also on record: expressed in transfected cells. In a few lines: (§1)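 Potency values represent EC50 from 4-parameter logistic curves of HTRF % Delta F signal. Receptor-expressing CHO cells (hGCGR 2×10^5 cells/mL, hGLP-1R 1×10^5 cells/mL) were exposed for 30 min at room temperature before two-step cAMP detection.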
(Cyclic AMP is a second messenger, typically raised through Gs and lowered through Gi signalling.)

For test [2], the target named is human glucagon receptor (hGCGR) (Homo sapiens, UniProt P47871). Briefly: cAMP production (HTRF) in CHO cells expressing hGCGR. The format is cell-based. Also on record: expressed in transfected cells. The settings on record: cAMP in CHO hGCGR cells, geometric mean, read-out: hGluc-R EC50. An outline of the steps: as §1
Setting [3] is: Table 7, peptides modified at position 20.
[4] abbreviates: Table 6, peptides modified at position 17.

Like-named read-outs stand apart in the source and are kept apart here. Starred links: 1 amine or outer side, 2 acyl side, 3 side chain; linkers in the order of their positions; H or OH if unused. Non-standard residues stand in square brackets, D forms with d. Residues, ends and D or L forms follow the SMILES beside them. Groups on a side chain read outwards from the residue. *: point of attachment. C20 diacid = O=C(O)CCCCCCCCCCCCCCCCCCC(=O)*; C18 diacid = O=C(O)CCCCCCCCCCCCCCCCC(=O)*; Dip = N[C@H](C(=O)O)C(c1ccccc1)c1ccccc1; γGlu = O=C(O)[C@H](CCC(=O)[*:2])N[*:1]; Palmitoyl = CCCCCCCCCCCCCCCC(=O)*; αMeF = C[C@](N)(Cc1ccccc1)C(=O)O; PEG2 = NCCOCCOCCC(=O)O; AEEA = NCCOCCOCC(=O)O; Aib = CC(C)(N)C(=O)O

Chain of human GLP-1 receptor (hGLP-1R) (P43220 24-463): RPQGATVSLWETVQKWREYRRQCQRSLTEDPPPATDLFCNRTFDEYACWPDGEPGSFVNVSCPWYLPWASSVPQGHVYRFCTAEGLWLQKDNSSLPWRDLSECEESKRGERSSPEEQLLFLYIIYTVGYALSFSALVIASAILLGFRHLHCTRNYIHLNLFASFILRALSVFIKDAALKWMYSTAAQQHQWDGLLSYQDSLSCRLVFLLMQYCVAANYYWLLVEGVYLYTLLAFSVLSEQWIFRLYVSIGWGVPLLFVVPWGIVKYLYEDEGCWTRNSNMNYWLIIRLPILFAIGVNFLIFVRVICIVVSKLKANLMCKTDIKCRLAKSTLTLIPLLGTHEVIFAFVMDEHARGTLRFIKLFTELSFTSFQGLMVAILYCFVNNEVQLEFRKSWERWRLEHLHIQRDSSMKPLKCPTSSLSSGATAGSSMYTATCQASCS
Chain of human glucagon receptor (hGCGR) (P47871 26-477): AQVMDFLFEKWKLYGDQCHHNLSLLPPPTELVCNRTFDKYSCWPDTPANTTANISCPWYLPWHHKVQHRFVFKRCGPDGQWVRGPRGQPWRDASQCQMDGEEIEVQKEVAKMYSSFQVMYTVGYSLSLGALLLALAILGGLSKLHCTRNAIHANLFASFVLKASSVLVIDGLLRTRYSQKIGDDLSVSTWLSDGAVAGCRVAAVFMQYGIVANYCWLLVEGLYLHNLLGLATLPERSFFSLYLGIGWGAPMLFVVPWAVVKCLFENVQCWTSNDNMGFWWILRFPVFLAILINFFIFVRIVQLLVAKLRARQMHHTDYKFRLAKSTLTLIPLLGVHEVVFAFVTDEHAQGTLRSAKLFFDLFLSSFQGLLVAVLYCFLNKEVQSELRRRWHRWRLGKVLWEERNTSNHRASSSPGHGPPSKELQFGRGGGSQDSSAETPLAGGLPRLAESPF

In general, EC50 refers to the concentration that produces a half-maximal response. Consider `CC[C@H](C)[C@H](NC(=O)C(C)(C)NC(=O)[C@H](CCC(N)=O)NC(=O)[C@@H](NC(=O)[C@](C)(Cc1ccccc1)NC(=O)[C@H](CC(=O)O)NC(=O)[C@H](CCCCNC(=O)COCCOCCNC(=O)COCCOCCNC(=O)CC[C@H](NC(=O)CC[C@H](NC(=O)CCCCCCCCCCCCCCCCCCC(=O)O)C(=O)O)C(=O)O)NC(=O)[C@H](C)NC(=O)[C@H](C)NC(=O)[C@H](CCCNC(=N)N)NC(=O)[C@H](CO)NC(=O)[C@H](CC(=O)O)NC(=O)[C@H](CC(C)C)NC(=O)[C@](C)(Cc1ccccc1)NC(=O)[C@H](CCCCN)NC(=O)[C@H](CO)NC(=O)[C@@H](NC(=O)[C@H](CC(=O)O)NC(=O)[C@H](CO)NC(=O)[C@@H](NC(=O)[C@](C)(Cc1ccccc1)NC(=O)[C@H](CO)NC(=O)CNC(=O)[C@H](Cc1c[nH]cn1)NC(=O)C(C)(C)NC(=O)[C@@H](N)Cc1c[nH]cn1)[C@@H](C)O)C(C)C)C(C)C)C(=O)N[C@@H](C)C(=O)N[C@@H](CC(N)=O)C(=O)N[C@H](C(=O)O)[C@@H](C)O` [Peptide 304] (H-H[Aib]HGS[αMeF]TSDVSK[αMeF]LDSRAAK([AEEA-AEEA-γGlu-γGlu-C20 diacid])D[αMeF]VQ[Aib]IANT-OH), for which the EC50 in test [1] (setting [3]) worked out at 239 pM; in test [2] (setting [3]) it was 687 pM. Moreover, in test [1] (Table 7), the “% Relative Potency Ratio” value came to 5.7.

Consider `CCCCCCCCCCCCCCCC(=O)N[C@@H](CCC(=O)N[C@@H](CCC(=O)NCCOCCOCCC(=O)NCCOCCOCCC(=O)NCCCC[C@H](NC(=O)[C@H](CO)NC(=O)[C@H](CC(=O)O)NC(=O)[C@H](CC(C)C)NC(=O)[C@@H](NC(=O)[C@H](CCCCN)NC(=O)[C@H](CO)NC(=O)[C@@H](NC(=O)[C@H](CC(=O)O)NC(=O)[C@H](CO)NC(=O)[C@@H](NC(=O)[C@](C)(Cc1ccccc1)NC(=O)[C@H](CO)NC(=O)CNC(=O)[C@H](CCC(N)=O)NC(=O)[C@H](CO)NC(=O)[C@@H](N)Cc1c[nH]cn1)[C@@H](C)O)C(C)C)[C@@H](C)CC)C(=O)N[C@@H](C)C(=O)N[C@@H](C)C(=O)N[C@@H](CCC(N)=O)C(=O)N[C@@H](CC(=O)O)C(=O)N[C@@](C)(Cc1ccccc1)C(=O)N[C@H](C(=O)N[C@@H](CCC(N)=O)C(=O)N[C@H](C(=O)N[C@H](C(=O)N[C@@H](C)C(=O)NCC(N)=O)[C@@H](C)CC)[C@@H](C)CC)C(C)C)C(=O)O)C(=O)O` [Peptide 113] (H-HSQGS[αMeF]TSDVSKILDSK([PEG2-PEG2-γGlu-γGlu-Palmitoyl])AAQD[αMeF]VQIIAG-NH2; N-terminus assumed), for which the EC50 was found to be 1.61 pM in test [1] (setting [4]) and 4.6 pM in test [2] (setting [4]). Moreover, the “% Relative Potency Ratio” value in test [1] (Table 6) is 5.6.

As to `CCCCCCCCCCCCCCCC(=O)N[C@@H](CCC(=O)NCCOCCOCCC(=O)NCCOCCOCCC(=O)NCCCC[C@H](NC(=O)[C@H](CO)NC(=O)[C@H](CC(=O)O)NC(=O)[C@H](CC(C)C)NC(=O)[C@@H](NC(=O)[C@H](CCCCN)NC(=O)[C@H](CO)NC(=O)[C@@H](NC(=O)[C@H](CC(=O)O)NC(=O)[C@H](CO)NC(=O)[C@@H](NC(=O)[C@](C)(Cc1ccccc1)NC(=O)[C@H](CO)NC(=O)CNC(=O)[C@H](CCC(N)=O)NC(=O)C(C)(C)NC(=O)[C@@H](N)Cc1c[nH]cn1)[C@@H](C)O)C(C)C)C(c1ccccc1)c1ccccc1)C(=O)N[C@@H](C)C(=O)N[C@@H](C)C(=O)N[C@@H](CCC(N)=O)C(=O)N[C@@H](CC(=O)O)C(=O)N[C@@](C)(Cc1ccccc1)C(=O)N[C@H](C(=O)N[C@@H](CCC(N)=O)C(=O)NC(C)(C)C(=O)N[C@H](C(=O)N[C@@H](C)C(=O)N[C@@H](CC(N)=O)C(N)=O)[C@@H](C)CC)C(C)C)C(=O)O` [Peptide 67] (H-H[Aib]QGS[αMeF]TSDVSK[Dip]LDSK([PEG2-PEG2-γGlu-Palmitoyl])AAQD[αMeF]VQ[Aib]IAN-NH2; N-terminus assumed), the 50% effective concentration (EC50) in test [1] (setting [4]) came out at 2.43 pM; in test [2] (setting [4]), 9.49 pM. In test [1] (Table 6), the “% Relative Potency Ratio” value is 7.7.

Consider `CC[C@H](C)[C@H](NC(=O)[C@H](Cc1ccccc1)NC(=O)[C@H](CC(=O)O)NC(=O)[C@H](CCCNC(=N)N)NC(=O)[C@H](C)NC(=O)[C@H](CCCNC(=N)N)NC(=O)[C@H](CCCCNC(=O)COCCOCCNC(=O)COCCOCCNC(=O)CC[C@H](NC(=O)CCCCCCCCCCCCCCCCC(=O)O)C(=O)O)NC(=O)[C@@H](NC(=O)[C@H](CC(=O)O)NC(=O)[C@H](CC(C)C)NC(=O)[C@](C)(Cc1ccccc1)NC(=O)[C@H](CCCCN)NC(=O)[C@H](CO)NC(=O)[C@@H](NC(=O)[C@H](CC(=O)O)NC(=O)[C@H](CO)NC(=O)[C@@H](NC(=O)[C@H](Cc1ccccc1)NC(=O)[C@@H](NC(=O)CNC(=O)[C@H](CCC(N)=O)NC(=O)C(C)(C)NC(=O)[C@@H](N)Cc1c[nH]cn1)[C@@H](C)O)[C@@H](C)O)C(C)C)[C@@H](C)O)C(=O)N[C@@H](C)C(=O)N[C@@H](Cc1c[nH]c2ccccc12)C(=O)N[C@@H](CC(C)C)C(=O)N[C@@H](CC(C)C)C(=O)N[C@@H](CCC(=O)O)C(=O)NC(C)(C)C(=O)NCC(=O)O` [Peptide 199] (H-H[Aib]QGTFTSDVSK[αMeF]LDTK([AEEA-AEEA-γGlu-C18 diacid])RARDFIAWLLE[Aib]G-OH), for which the 50% effective concentration (EC50) turned out to be 31.6 pM in test [1] (setting [4]) and 180 pM in test [2] (setting [4]). Also, the “% Relative Potency Ratio” value in test [1] (Table 6) is listed as 11.3.

Take `CCCCCCCCCCCCCCCC(=O)N[C@@H](CCC(=O)N[C@@H](CCC(=O)NCCOCCOCCC(=O)NCCOCCOCCC(=O)NCCCC[C@H](NC(=O)[C@H](CO)NC(=O)[C@H](CC(=O)O)NC(=O)[C@H](CC(C)C)NC(=O)[C@@H](NC(=O)[C@H](CCCCN)NC(=O)[C@H](CO)NC(=O)[C@@H](NC(=O)[C@H](CC(=O)O)NC(=O)[C@H](CO)NC(=O)[C@@H](NC(=O)[C@](C)(Cc1ccccc1)NC(=O)[C@H](CO)NC(=O)CNC(=O)[C@H](CCC(N)=O)NC(=O)C(C)(C)NC(=O)[C@@H](N)Cc1c[nH]cn1)[C@@H](C)O)C(C)C)[C@@H](C)CC)C(=O)N[C@@H](C)C(=O)N[C@@H](C)C(=O)N[C@@H](CCC(N)=O)C(=O)N[C@@H](CC(=O)O)C(=O)N[C@@](C)(Cc1ccccc1)C(=O)N[C@H](C(=O)N[C@@H](CCC(N)=O)C(=O)NC(C)(C)C(=O)N[C@H](C(=O)N[C@H](C(=O)N[C@@H](CC(N)=O)C(=O)N[C@H](C(N)=O)[C@@H](C)O)[C@@H](C)CC)[C@@H](C)CC)C(C)C)C(=O)O)C(=O)O` [Peptide 125] (H-H[Aib]QGS[αMeF]TSDVSKILDSK([PEG2-PEG2-γGlu-γGlu-Palmitoyl])AAQD[αMeF]VQ[Aib]IINT-NH2; N-terminus assumed): the “% Relative Potency Ratio” value in test [1] (Table 6) is listed as 23.0. The EC50 in test [2] (setting [4]) stood at 6.68 pM.

Take `CC(C)C[C@H](NC(=O)[C@H](Cc1c[nH]c2ccccc12)NC(=O)[C@H](CCC(N)=O)NC(=O)[C@@H](NC(=O)[C@H](Cc1ccccc1)NC(=O)[C@H](CC(=O)O)NC(=O)[C@H](CCCNC(=N)N)NC(=O)[C@H](C)NC(=O)[C@H](CCCNC(=N)N)NC(=O)[C@H](CCCCNC(=O)COCCOCCNC(=O)COCCOCCNC(=O)CC[C@H](NC(=O)CCCCCCCCCCCCCCCCC(=O)O)C(=O)O)NC(=O)[C@@H](NC(=O)[C@H](CC(=O)O)NC(=O)[C@H](CC(C)C)NC(=O)[C@](C)(Cc1ccccc1)NC(=O)[C@H](CCCCN)NC(=O)[C@H](CO)NC(=O)[C@@H](NC(=O)[C@H](CC(=O)O)NC(=O)[C@H](CO)NC(=O)[C@@H](NC(=O)[C@H](Cc1ccccc1)NC(=O)[C@@H](NC(=O)CNC(=O)[C@H](CCC(N)=O)NC(=O)C(C)(C)NC(=O)[C@@H](N)Cc1c[nH]cn1)[C@@H](C)O)[C@@H](C)O)C(C)C)[C@@H](C)O)C(C)C)C(=O)N[C@@H](CC(C)C)C(=O)N[C@@H](CCC(=O)O)C(=O)NC(C)(C)C(=O)N[C@@H](CCCCN)C(N)=O` [Peptide 480] (H-H[Aib]QGTFTSDVSK[αMeF]LDTK([AEEA-AEEA-γGlu-C18 diacid])RARDFVQWLLE[Aib]K-NH2; N-terminus assumed): the EC50 is 12.6 pM in test [1] (setting [4]) and 136 pM in test [2] (setting [4]). The “% Relative Potency Ratio” value in test [1] (Table 6) is listed as 21.4.

As for `CC(C)C[C@H](NC(=O)[C@H](Cc1c[nH]c2ccccc12)NC(=O)[C@H](CCC(N)=O)NC(=O)[C@@H](NC(=O)[C@H](Cc1ccccc1)NC(=O)[C@H](CC(=O)O)NC(=O)[C@H](CCCNC(=N)N)NC(=O)[C@H](C)NC(=O)[C@H](CCCNC(=N)N)NC(=O)[C@H](CCCCNC(=O)COCCOCCNC(=O)COCCOCCNC(=O)CC[C@H](NC(=O)CCCCCCCCCCCCCCCCCCC(=O)O)C(=O)O)NC(=O)[C@@H](NC(=O)[C@H](CC(=O)O)NC(=O)[C@H](CC(C)C)NC(=O)[C@](C)(Cc1ccccc1)NC(=O)[C@H](CCCCN)NC(=O)[C@H](CO)NC(=O)[C@@H](NC(=O)[C@H](CC(=O)O)NC(=O)[C@H](CO)NC(=O)[C@@H](NC(=O)[C@H](Cc1ccccc1)NC(=O)[C@@H](NC(=O)CNC(=O)[C@H](CCC(N)=O)NC(=O)C(C)(C)NC(=O)[C@@H](N)Cc1c[nH]cn1)[C@@H](C)O)[C@@H](C)O)C(C)C)[C@@H](C)O)C(C)C)C(=O)N[C@@H](CC(C)C)C(=O)NC(C)(C)C(=O)N[C@H](C(=O)N[C@@H](CCC(=O)O)C(=O)O)[C@@H](C)O` [Peptide 488] (H-H[Aib]QGTFTSDVSK[αMeF]LDTK([AEEA-AEEA-γGlu-C20 diacid])RARDFVQWLL[Aib]TE-OH; N-terminus assumed), the EC50 came out at 202 pM in test [1] (setting [4]) and 301 pM in test [2] (setting [4]). The “% Relative Potency Ratio” value in test [1] (Table 6) is listed as 2.9.
